Test results reported in patent US20120252792A1, “METHODS AND COMPOSITIONS FOR MODULATING RHO-MEDIATED GENE TRANSCRIPTION” (THE REGENTS OF THE UNIVERSITY OF MICHIGAN, priority 2009, published 2012).

Legend:
[1] = tested on: Rho/MKL1 pathway; assay: SRE.L-firefly luciferase reporter (dual luciferase assay), Gα12QL-transfected PC-3 cells; assay type: cell-based, human; settings: for inhibition at 10 µM: read-out: % inh SRE.L (10 μM); for inhibition at 100 µM: read-out: % inh SRE.L (100 μM)
Procedure: (§1) Dual Luciferase Assay: Seed PC-3 prostate cancer cells (40,000 cells/well) were grown in 96-well plates in 10% FBS containing DMEM medium. Cells were transiently transfected with the Gα12QL activator of the Rho/MKL1 pathway, along with the SRE.L-firefly luciferase reporter construct for 6 hours. Additionally, cells were co-transfected with the TK-Renilla luciferase reporter as an indicator of non-specific compound effects. Various concentrations of selected compounds were added to the 96-well plates. Plates were incubated for 19 hours at 37° C. and 5% CO2 in 0.5% FBS containing DMEM medium. Cells were lysed with 1X Passive Lysis Buffer (Promega). Plates were incubated for 30 minutes at room temperature. Luminescence counts were read with a Victor2 (Perkin-Elmer) plate reader.

[2] = tested on: TK-Renilla luciferase reporter; assay: TK-Renilla (pRL-TK) luciferase reporter, indicator of non-specific compound effects; assay type: cell-based, human; settings: PC-3 cells; for inhibition at 10 µM / inhibition at 100 µM: Homo sapiens, PC-3, 19 h; for inhibition at 10 µM: read-out: % inh PRL-TK (10 μM); for inhibition at 100 µM: read-out: % inh PRL-TK (100 μM)
Procedure: as §1

[3] = tested on: PC-3 prostate cancer cells; assay: WST1 cell viability assay; assay type: cell-based, human; settings: PC-3 cells, just before lysis; for inhibition at 10 µM / inhibition at 100 µM: Homo sapiens; for inhibition at 10 µM: PC-3, 10 μM, read-out: % inh WST-1 (10 μM); for inhibition at 100 µM: PC-3, 100 μM, read-out: % inh WST-1 (100 μM)
Procedure: WST1 Cell Viability Assay: One hour prior to cell lysis for the dual luciferase assay, 10 μl per well of WST1 reagent (Roche) was added to the 96-well plates. Plates were incubated for 1 hour at 37° C. and 5% CO2. Cell viability was measured by WST1 absorbance at 450 nm with a Victor2 (Perkin-Elmer) plate reader.

[4] = In vivo studies using CCG-1423
[5] = tested on: PC-3 cells, melanoma and other cancer cell lines; assay: Cancer cell proliferation and survival (BrdUrd, WST-1, caspase-3; FIG. 2); assay type: cell-based
Procedure: A, PC-3 cells were treated for 27 h with 100 μmol/L LPA in the presence or absence of various concentrations of CCG-1423, labeled with BrdUrd, and stained, and absorbance was read 450 nm. B, various cell lines were treated with […] LPA with or without […] CCG-1423, and then on day 8, WST-1 absorbance was read at 450 nm Black columns indicate four melanoma lines with differing expression of RhoC (A375M2 and SK-MeI-147 have high expression, whereas the parental line A375 (used to derive A375M2) and SK-Mel-28 have lower expression); gray columns indicate several other cancer cell lines; white column indicates the nontransformed fibroblast line WI-38. C, A375 and A375M2 cells were treated with 3 μmol/L CCG-1423 or 3 μmol/L daunorubicin for 25 h, and then caspase-3 activity was measured with a fluorescent substrate (Z0DEVD0R110) using excitation at 485 nm and emission detection at 520 nm. In A and C, data are expressed as a percentage of the no FBS control. In B, data are expressed as percentage of the LPA+DMSO control. All data represent n=3.

[6] = tested on: PC-3 prostate cancer cells; assay: Matrigel invasion, spontaneous (FIG. 3); assay type: cell-based, human; settings: 3 μmol/L, spontaneous invasion through Matrigel
Procedure: A, LPA stimulates invasion of SKOV-3 but not PC-3 cells. Invasion of Matrigel®-coated filters by serum-starved PC-3 prostate cancer or SKOV-3 ovarian cancer cells were measured with or without 30 μmol/L LPA as chemoattractant. B, CCG-1423 inhibits PC-3 cell invasion, whereas PTX inhibits SKOV-3 cell invasion. The effects of CCG-1423 (3 μmol/L) and PTX (100 ng/mL) on spontaneous (PC-3) or LPA-stimulated (SKOV-3) invasion through Matrigel® were measured. In B, data are expressed as a percentage of control. All data represent n=3.

[7] = tested on: Rho/MKL1 mediated transcription; settings: read-out: IC50 for blocking gene transcription; cited from earlier work
[8] = tested on: Rho-expressing prostate cancer and melanoma cell lines; settings: read-out: IC50 for inhibiting DNA synthesis, cell growth and survival, and Matrigel invasion; cited from earlier work
[9] = Homo sapiens, 19 h, 10 μM, DMSO alone = 0%
[10] = Homo sapiens, 19 h, DMSO alone = 0%

| IC50 ([1]; Homo sapiens, 19 h) [µM] | Structure (SMILES) | % inh SRE.L (10 μM) ([1]; 10 μM, 19 hrs, DMSO alone = 0%) | IC50 ([1]; 19 hrs) [µM] | % inh PRL-TK (10 μM) ([2]; 10 μM, 19 hrs) | % inh WST-1 (10 μM) ([3]; 10 μM) | in vivo toxicity [4] | cancer cell proliferation and survival [5] | PC-3 cell invasion [6] | IC50 [7] [µM] | IC50 [8] [µM] | inhibition at 10 µM [1, 9] [%] | inhibition at 100 µM [1, 10] [%] | inhibition at 10 µM ([2]; 10 μM) [%] | inhibition at 100 µM [2] [%] | inhibition at 10 µM [3] [%] | inhibition at 100 µM [3] [%] |
| --- | --- | --- | --- | --- | --- | --- | --- | --- | --- | --- | --- | --- | --- | --- | --- | --- |
|  | CC(ONC(=O)c1cc(C(F)(F)F)cc(C(F)(F)F)c1)C(=O)Nc1ccc(Cl)cc1 (stereo not shown) [CCG-1423] | 74, ND % | 1.5 | 48, ND % | 44, ND % | limited by non-specific toxicity | inhibits | inhibits | 1 | 1 |  |  |  |  |  |  |
| > 100 | O=C(CCc1cnnn1-c1cc(C(F)(F)F)cc(C(F)(F)F)c1)Nc1ccc(Cl)cc1 [Compound 59] |  |  |  |  |  |  |  |  |  | -3 | 4.7 | -31.8 | -13.3 | -9.5 | -11.8 |
| 8.1 | O=C(CCNCc1cc(C(F)(F)F)cc(C(F)(F)F)c1)Nc1ccc(Cl)cc1 [Compound 22, 3-(3,5-bis(trifluoromethyl)benzylamino)-N-(4-chlorophenyl)propanamide] |  |  |  |  |  |  |  |  |  | 64 | 100 | 12 | 91 | 0 | 92 |
| > 100 | O=C(Nc1ccc(Cl)cc1)c1ccc(NC(=O)c2cc(C(F)(F)F)cc(C(F)(F)F)c2)cc1 [Compound 38] |  |  |  |  |  |  |  |  |  | 0 |  | 0 |  | 0 |  |
| 5.9 | O=C(CONC(=O)c1cc(C(F)(F)F)cc(C(F)(F)F)c1)Nc1cccc(Cl)c1 [Compound 10, N-(2-(3-chlorophenylamino)-2-oxoethoxy)-3,5-bis(trifluoromethyl)benzamide] |  |  |  |  |  |  |  |  |  | 65 | 100 | 51 | 89 | 49 | 97 |
